PubChem BioAssay AID2060613 (Molecular Pharmacology Branch, DTP, NCI, 2025)
“And” between values parts separate entries of the source, which are not always exact repeats. Identical values can stand only once.

System: 233499-124-R-J3-PDC complex spheroid viability
Assay: Anticancer human tumor 233499-124-R-J3-PDC patient-derived colon adenocarcinoma cell line growth inhibition [CLK]
Conditions: for viability, T/C: stronger effect = lower value
Summary of the method: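 Patient-derived tumor cells grown as complex spheroids with HUVEC endothelial cells and mesenchymal stem cells, treated with drug combinations. Concentrations descend in half-log steps from near clinical Cmax, or from 10 microM if Cmax unknown.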
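Further: spheroids exposed to the drug combinations for seven days.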
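Wherever viability, T/C is given: percent viability relative to DMSO vehicle control wells taken as 100%.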

For `CC1COCCN1c1cc(C2(S(C)(=N)=O)CC2)nc(-c2ccnc3[nH]ccc23)n1` (stereo unspecified), the viability, T/C (compound 0.0316 µM) was 101% and 95.8%, the viability, T/C (compound 0.1 µM) was 101% and 91.5% and the viability, T/C (compound 0.316 µM) was 98.3% and 92.1%. The viability, T/C (compound 1 µM) was 101% and 74.8%, the viability, T/C (compound 3.16 µM) was 99.7% and 89.2% and the viability, T/C (compound 10 µM) was 81.4% and 53.9%. For the same compound, the IC50 (curve of compound) was greater than 10000 nM.

Compound `CC(Nc1ccc2c(c1)OCCn1cc(N3C(=O)OCC3C(F)F)nc1-2)C(N)=O` (stereo unspecified) + CNC(=O)c1ccc(Nc2nc(OC3CCCC3)c3c(-c4ccc5nc(C)oc5c4)c[nH]c3n2)c(OC)c1 has an IC50 (curve of first compound, second compound 0.0316 µM) greater than 10000 nM, an IC50 (curve of first compound, second compound 0.1 µM) of 3880 nM and an IC50 (curve of first compound, second compound 0.316 µM) of 2810 nM. For the same compound, the IC50 (curve of first compound, second compound 1 µM) was 316 nM, the IC50 (curve of first compound, second compound 3.16 µM) was 624 nM and the IC50 (curve of first compound, second compound 10 µM) was 1080 nM. For the same compound, the viability, T/C (second compound 0.0316 µM, first compound 0.0316 µM) was 85.3%, the viability, T/C (second compound 0.0316 µM, first compound 0.1 µM) was 94.6% and the viability, T/C (second compound 0.0316 µM, first compound 0.316 µM) was 81%. For the same compound, the viability, T/C (second compound 0.0316 µM, first compound 1 µM) was 72.7%, the viability, T/C (second compound 0.0316 µM, first compound 3.16 µM) was 65.5% and the viability, T/C (second compound 0.0316 µM, first compound 10 µM) was 53.6%. It also gave a viability, T/C (second compound 0.1 µM, first compound 0.0316 µM) of 68.9%, a viability, T/C (second compound 0.1 µM, first compound 0.1 µM) of 75.1% and a viability, T/C (second compound 0.1 µM, first compound 0.316 µM) of 72.2%. For the same compound, the viability, T/C (second compound 0.1 µM, first compound 1 µM) was 64.8%, the viability, T/C (second compound 0.1 µM, first compound 3.16 µM) was 52.9% and the viability, T/C (second compound 0.1 µM, first compound 10 µM) was 38.6%. It also gave a viability, T/C (second compound 0.316 µM, first compound 0.0316 µM) of 66.9%, a viability, T/C (second compound 0.316 µM, first compound 0.1 µM) of 65.7% and a viability, T/C (second compound 0.316 µM, first compound 0.316 µM) of 72.2%. For the same compound, the viability, T/C (second compound 0.316 µM, first compound 1 µM) was 58.4%, the viability, T/C (second compound 0.316 µM, first compound 3.16 µM) was 49.6% and the viability, T/C (second compound 0.316 µM, first compound 10 µM) was 32.5%. The viability, T/C (second compound 1 µM, first compound 0.0316 µM) was 74.8%, the viability, T/C (second compound 1 µM, first compound 0.1 µM) was 74.9% and the viability, T/C (second compound 1 µM, first compound 0.316 µM) was 50%. The viability, T/C (second compound 1 µM, first compound 1 µM) was 42.7%, the viability, T/C (second compound 1 µM, first compound 3.16 µM) was 45.9% and the viability, T/C (second compound 1 µM, first compound 10 µM) was 42.4%. The viability, T/C (second compound 3.16 µM, first compound 0.0316 µM) was 61.3%, the viability, T/C (second compound 3.16 µM, first compound 0.1 µM) was 63.6% and the viability, T/C (second compound 3.16 µM, first compound 0.316 µM) was 56.4%. It also gave a viability, T/C (second compound 3.16 µM, first compound 1 µM) of 41.1%, a viability, T/C (second compound 3.16 µM, first compound 3.16 µM) of 42.3% and a viability, T/C (second compound 3.16 µM, first compound 10 µM) of 37%. The viability, T/C (second compound 10 µM, first compound 0.0316 µM) was 60.8%, the viability, T/C (second compound 10 µM, first compound 0.1 µM) was 55.9% and the viability, T/C (second compound 10 µM, first compound 0.316 µM) was 68.1%. It also gave a viability, T/C (second compound 10 µM, first compound 1 µM) of 44.8%, a viability, T/C (second compound 10 µM, first compound 3.16 µM) of 39% and a viability, T/C (second compound 10 µM, first compound 10 µM) of 22.2%.

For `Cn1ncnc1[C@H]1c2n[nH]c(=O)c3cc(F)cc(c23)N[C@@H]1c1ccc(F)cc1`, the viability, T/C (compound 0.000316 µM) was 100% and 107%, the viability, T/C (compound 0.001 µM) was 85.7% and 92% and the viability, T/C (compound 0.00316 µM) was 100% and 103%. The viability, T/C (compound 0.01 µM) was 97.6% and 97.4%, the viability, T/C (compound 0.0316 µM) was 100% and 97.1% and the viability, T/C (compound 0.1 µM) was 103% and 96%. The IC50 (curve of compound) was greater than 100 nM.
